# Assay results published in article PMC6027674, “Acetylcholinesterase Inhibition and Antioxidant Activity of N-trans-Caffeoyldopamine and N-trans-Feruloyldopamine” (Scientia Pharmaceutica, 2018).
# “And” between values parts separate entries of the source, which are not always exact repeats. Equal values may be shown once.
# Tests used:
# [1] = Fe(II)-chelating assay (inhibition of Fe^2+–ferrozine complex formation); settings: 10 min, room temperature, 562 nm
# Text: Among the transition metals, Fe^2+ ions are well-known for their significant role as a prooxidants in the lipid oxidation process and the formation of hydroxyl radicals in Fenton-type reactions. However, effective chelating agents can reduce the damage resulting from these reactions. The most important spectrophotometric method for studying chelation activity is the inhibition of the Fe^2+–ferrozine complex formation, during which ferrozine reacts quantitatively with Fe^2+ ions in the […] of a chelating agent and complex formation is disrupted. Measurement of color reduction therefore allows estimation of the metal chelating activity of the coexisting chelator. The chelating abilities on Fe^2+ by the tested compounds were estimated by the method as described by Dinis. Briefly, 0.4 mL of the tested compound was added to 0.05 mL of FeCl2 (2 mM) solution. The reaction was initiated by the addition of ferrozine (0.2 mL, 5 mM). The total volume of the systems was adjusted to 4 mL with ethanol. Then, the mixture was shaken vigorously and left at room temperature for 10 min. […] The percentage of chelating effect was calculated by using the equation below:(4) % Chelating effect = (1 − At/A0) × 100 where A0 is the absorbance of the control and At is the absorbance of the tested compound.
# (§1) Regression analysis was performed to calculate the dose-response relation and IC50 values were obtained from the equations y = a ± bx.
# [2] = molecular target: acetylcholinesterase (AChE) from Electrophorus electricus (Electrophorus electricus, UniProt O42275); assay: biochemical; settings: AChE from E. electricus; 15 min incubation at 37 °C, pH 8; mean ± SD, n = 3; read-out: AChE Inhibition IC50
# acetylcholinesterase (AChE) from Electrophorus electricus, sequence (O42275 24-633): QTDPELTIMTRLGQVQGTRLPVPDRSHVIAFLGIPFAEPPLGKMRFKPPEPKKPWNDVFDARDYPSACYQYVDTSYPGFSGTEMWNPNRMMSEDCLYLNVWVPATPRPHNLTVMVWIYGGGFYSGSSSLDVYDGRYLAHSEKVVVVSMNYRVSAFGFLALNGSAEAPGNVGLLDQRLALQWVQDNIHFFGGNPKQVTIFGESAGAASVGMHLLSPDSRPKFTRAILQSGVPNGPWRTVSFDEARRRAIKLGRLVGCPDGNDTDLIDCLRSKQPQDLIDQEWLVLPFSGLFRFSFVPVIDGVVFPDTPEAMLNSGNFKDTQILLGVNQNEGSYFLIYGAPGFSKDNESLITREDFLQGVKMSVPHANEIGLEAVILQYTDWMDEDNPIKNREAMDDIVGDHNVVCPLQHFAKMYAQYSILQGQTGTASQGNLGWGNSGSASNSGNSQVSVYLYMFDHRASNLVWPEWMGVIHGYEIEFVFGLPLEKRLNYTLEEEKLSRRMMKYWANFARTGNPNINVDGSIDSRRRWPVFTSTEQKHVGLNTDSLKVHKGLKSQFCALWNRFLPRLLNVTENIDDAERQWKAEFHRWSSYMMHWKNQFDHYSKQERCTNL
# [3] = DPPH free radical scavenging assay; settings: 30 min, room temperature, dark, 517 nm; mean ± SD, n = 3; read-out: DPPH^• Scavenge IC50
# Text: The 2,2-diphenyl-1-pycrylhydrazyl free radical (DPPH^•) scavenging method is widely used to evaluate the free radical scavenging ability of natural antioxidants. 2,2-Diphenyl-1-pycrylhydrazyl is a stable nitrogen centered free radical, which has a violet color that changes to yellow after reduction by the process of either hydrogen atom or single electron transfer mechanism. Compounds that are able to execute this reaction can be considered antioxidants and therefore radical scavengers. In the radical form, the DPPH molecule has an absorbance of 517 nm, which disappears after the acceptance of an electron or hydrogen radical from an antioxidant compound, to become a stable diamagnetic molecule. The DPPH^• scavenging activities of the tested compounds were estimated using the method of [35] with slight modification. To 1 mL methanolic solution of DPPH^• (0.08 mM), 0.1 mL of the tested compounds were added. The resulting mixture was shaken thoroughly and allowed to stand at room temperature in the dark for 30 min, after which the absorbance of the solution was measured at 517 nm. L(+)-Ascorbic acid was used as the positive control. The negative control contained DPPH^• and methanol. The ability to scavenge DPPH radical was calculated using the equation:(2) % DPPH radical scavenge = (1 − At/A0) × 100 where A0 is the absorbance of the control and At is the absorbance of the tested compound. The DPPH^• absorbance decreases with an increase in the DPPH radical scavenging activity.
# (§2) All data on AChE inhibition/antioxidant activity are the average of triplicate analyses (n = 3) and the data were recorded as mean ± standard deviation. Regression analysis was performed to calculate the dose-response relation and IC50 values were obtained from the equations y = a ± bx.
# [4] = ABTS radical cation scavenging assay; settings: 7 min, room temperature, 734 nm; mean ± SD, n = 3; read-out: ABTS^•+ Scavenge IC50
# Method: The 2,2′-azinobis(3-ethylbenzothiazoline-6-sulphonic acid) radical cation (ABTS^•+), which absorbs at 734 nm, is formed by oxidation of the commercially available neutral species. This oxidation can be done by potassium persulphate, manganese (IV) oxide, or electrochemical methods. In the presence of a hydrogen-donating antioxidant, the […] quenches the hydrogen atom, which is followed by decolorization. In this study, the ABTS^•+ was produced by mixing 7 mM ABTS stock solution with 2.45 mM potassium persulfate and allowing the mixture to stand in a dark at room temperature for 16 h before use. Different concentrations of the tested compounds (0.1 mL) were added to 1 mL ABTS^•+ solution. The reaction mixtures were mixed thoroughly, incubated at room temperature for 7 min, and the absorbance was recorded at 734 nm. The ability to scavenge the ABTS radical cation was calculated using the following equation:(3) % ABTS radical cation scavenge = (1 − At/A0) × 100 where A0 is the absorbance of the control and At is the absorbance of the tested compound. The ABTS^•+ solution without any sample was used as a control, prepared by using the same procedure. From the percentage of the scavenging activity at different tested compounds concentrations, IC50 values were calculated and compared with those of standard L(+)-ascorbic acid solution.
# as §2
# [5] = Ferric-reducing antioxidant power (FRAP) assay; settings: pH 3.6, 6 min, 593 nm; mean ± SD, n = 3
# Method: The FRAP assay is a typical electron transfer-based method that measures the reduction of (Fe^3+)-ligand complex to the intensely blue-colored ferrous (Fe^2+)-ligand complex by antioxidants. The FRAP assay is carried out under acidic pH conditions in order to maintain iron solubility and more importantly, drive electron transfer. This will increase the redox potential, causing a shift in the dominant reaction mechanism. The FRAP assay was done according to the method described by Benzie and Strain [40] with slightly modifications. The stock solutions included 300 mM acetate buffer (pH 3.6), 10 mM 2,4,6-tris(2-pyridyl)-s-triazine (TPTZ) solution in ethanol, and 20 mM FeCl3 solution in 20 mM HCl. […] An aliquot of 0.1 mL of the tested compound was allowed to react with 3.0 mL of the FRAP working solution and 0.3 mL of water. […] The results are expressed as L(+)-ascorbic acid equivalent (AAE).
# as §1
# [6] = read-out: Chelation ability IC50 (Fe^2+ ions)
SMILES,"IC50 [1, 6] [µM]",IC50 [2] [µM],IC50 [3] [µM],IC50 [4] [µM],FRAP AAE (L(+)-ascorbic acid equivalent) [5],IC50 ([1]; read-out: Chelation of ferrous ions IC50) [µM]
"O=C([O-])CN(CCN(CC(=O)[O-])CC(=O)O)CC(=O)O.[Na+].[Na+] [Na2EDTA, disodium ethylenediaminetetraacetate]",10,–,–,–,–,–
COc1cc(/C=C/C(=O)O)ccc1O [trans-Ferulic acid],5060,20.6 ± 0.65,19.93 ± 0.18,1.62 ± 0.01,–,–
O=C(/C=C/c1ccc(O)c(O)c1)NCCc1ccc(O)c(O)c1 [N-trans-Caffeoyldopamine],–,19.1 ± 0.83,5.95 ± 0.12,0.24,822.45 μmol/mmol and 822.45 ± 13.53 μmol/mmol,3480
O=C(O)/C=C/c1ccc(O)c(O)c1 [trans-Caffeic acid],12900,–,18.9 ± 0.22,1.19 ± 0.02,526.05 ± 12.87 μmol/mmol,–
COc1cc(/C=C/C(=O)NCCc2ccc(O)c(O)c2)ccc1O [N-trans-Feruloyldopamine],3170,8.52 ± 0.27,12.29 ± 0.04,0.74,661.53 ± 13.51 μmol/mmol,–
O=C1O[C@H]([C@@H](O)CO)C(O)=C1O [L(+)-Ascorbic acid],–,–,1.14 ± 0.03,0.11,–,–
